# Where two headings read alike, the source gives them in different places.
# How the values were obtained:
# [1] = set-up: method as in PMID 34965609; conditions: healthy subjects, cited from earlier work
# DPP-4 = target: T1, DPP-4 (Homo sapiens, UniProt P27487); assay: Population PK/PD model (Sigmoid-Emax, DPP-4 inhibition); format: in vivo
# T1 construct: from tissue; host or cells: human plasma (K2-EDTA blood from T2DM patients)
# From the text: As a result of data with an absolute value of CWRES greater than 5 being excluded, only 554 blood concentrations of cetagliptin were included in development of the PopPK/PD model. A direct-effect model was used to build the PK/PD model; and the model formula was as follows:
# DPP−4 inhibition (%)=Emax*C^γ/(EC50γ+C^γ)
# plasma active GLP-1 = assay: Plasma active GLP-1 concentration change from baseline (ELISA); format: in vivo, human; conditions: patients with T2DM; for GLP-1 Baseline (value before dosing): day 1 before dosing; for increase of plasma active GLP-1 AUEC0-24h compared with placebo group: after multiple dosing; for △GLP-1 TRmax,ss / △GLP-1 TRmax: median (range)
# Procedure: Blood samples for GLP-1 activity evaluation were collected at the same time points as for PK. 2 mL blood samples were collected for GLP-1 activity detection (20 μL DPP-4i was added to blood-collecting tubes beforehand). The tubes were placed on ice until centrifugation. The blood samples were centrifuged at 2-8°C, 1500 g for 10 minutes within 1 hour after blood collection. After centrifugation, the blood samples were evenly divided into two aliquots and stored at -80 ± 10°C. Plasma active GLP-1 concentrations were determined using a validated ELISA method. Linear calibration curves were obtained in the concentration range of 0.017-276 pM ([31]).
# The change of GLP-1 concentration from baseline (△GLP-1) was calculated as follows:
# Δ [GLP-1] = [GLP-1] (t) - [GLP-1] (0)
# The calculated parameters for GLP-1 activity were as follows: the baseline GLP-1 value before dosing (Baseline), Rmax, TRmax, AUEC0-t, AUEC0-24h, GLP-1 concentration change at 2 h after lunch (△GLP-1-6h), GLP-1 concentration change at 2 h after dinner (△GLP-1-12h), Rmin on day 14, and the average response on day 14 (Ravg).
# [2] = set-up: method as in PMID 34655432; conditions: healthy subjects; single oral doses of 12.5 to 400 mg; cited from earlier work
# [3] = system: glucose, insulin, C-peptide, and glucagon; assay: Oral glucose tolerance test (OGTT): glucose, insulin, C-peptide, glucagon; format: in vivo, human; set-up: change of AUEC0-3 h relative to baseline for insulin (OGTT) / change of AUEC0-3 h relative to baseline for C-peptide (OGTT) / change of AUEC0-3 h relative to baseline for glucagon (OGTT) / C-peptide AUEC0-t (OGTT) / glucagon AUEC0-t (OGTT) / insulin AUEC0-t (OGTT): unit not given here; conditions: patients with T2DM; for change of AUEC0-3 h relative to baseline for C-peptide (OGTT) / change of AUEC0-3 h relative to baseline for glucagon (OGTT) / change of AUEC0-3 h relative to baseline for insulin (OGTT) / change of AUEC0-3 h relative to baseline for plasma glucose (OGTT): day 15 vs day -1
# Procedure: To assess the impact of investigational products on glucose, insulin, C-peptide, and glucagon, OGTT tests were conducted on day -1 and day 15 following a fasting period of more than 8 hours. Subjects received a 75 g oral glucose dose and blood samples (1.5 mL for glucose, 3.5 mL for insulin and C-peptide, 2 mL for glucagon) were collected at 0, 0.167, 0.5, 1, 1.5, 2, and 3 h after ingestion of glucose. The PD parameters (AUEC0-t) for glucose, insulin, C-peptide, and glucagon were calculated by using drug effect module of non-compartmental method with Phoenix WinNonlin.
# [4] = final model estimate, patients with T2DM
# [5] = 50 mg group, day -1 (baseline before dosing)
# [6] = 100 mg group, day -1 (baseline before dosing)
# [7] = day 15 after 50 mg once daily for 14 days
# [8] = day 15 after 100 mg once daily for 14 days
# T1 sequence (P27487 39-766 limits assumed): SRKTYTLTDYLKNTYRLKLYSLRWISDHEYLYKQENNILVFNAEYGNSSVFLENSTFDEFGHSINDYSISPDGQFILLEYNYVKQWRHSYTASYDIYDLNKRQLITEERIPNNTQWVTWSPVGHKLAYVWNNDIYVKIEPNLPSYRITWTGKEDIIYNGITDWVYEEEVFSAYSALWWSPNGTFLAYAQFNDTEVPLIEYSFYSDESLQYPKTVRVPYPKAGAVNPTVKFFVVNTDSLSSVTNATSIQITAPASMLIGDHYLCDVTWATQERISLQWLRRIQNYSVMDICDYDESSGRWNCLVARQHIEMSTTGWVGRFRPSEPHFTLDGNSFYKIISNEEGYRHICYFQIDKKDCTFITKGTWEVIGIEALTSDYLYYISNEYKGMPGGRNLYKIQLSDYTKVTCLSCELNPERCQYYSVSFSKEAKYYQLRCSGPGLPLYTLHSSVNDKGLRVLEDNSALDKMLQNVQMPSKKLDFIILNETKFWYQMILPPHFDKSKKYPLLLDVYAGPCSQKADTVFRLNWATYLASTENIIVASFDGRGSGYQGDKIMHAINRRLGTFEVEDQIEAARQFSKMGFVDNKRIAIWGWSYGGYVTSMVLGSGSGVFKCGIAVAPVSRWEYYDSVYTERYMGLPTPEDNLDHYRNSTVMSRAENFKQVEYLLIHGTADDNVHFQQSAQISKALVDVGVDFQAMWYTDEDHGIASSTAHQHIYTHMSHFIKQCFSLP
smiles,measurement,setting,value
"C[C@@H]1c2cnc(C(F)(F)F)n2CCN1C(=O)C[C@H](N)Cc1cc(F)c(F)cc1F.O=P(O)(O)O [Cetagliptin, cetagliptin]",AUC0-τ (steady state),[1]; 50 mg,1440 ng·h/mL
same,Cmax (steady state),[1]; 50 mg,125 ng/mL
same,RAUC,[1]; 50 mg,1.72
same,Tmax (steady state),[1]; 50 mg,1.5 h
same,t1/2 (steady state),[1]; 50 mg,38.8 h
same,AUC0-τ (steady state),[1]; 100 mg,3120 ng·h/mL
same,Cmax (steady state),[1]; 100 mg,294 ng/mL
same,RAUC,[1]; 100 mg,1.38
same,Tmax (steady state),[1]; 100 mg,1.0 h
same,t1/2 (steady state),[1]; 100 mg,36.6 h
same,tvEC50 (typical value of concentration for 50% of maximal effect),DPP-4; bootstrap median,5.120
same,tvEmax (typical value of maximum pharmacodynamic effects),DPP-4; bootstrap median,91.78
same,tvGam (typical value of Hill coefficient),DPP-4; bootstrap median,1.008
same,tvEC50 (typical value of concentration for 50% of maximal effect),DPP-4; [4],5.120
same,tvEmax (typical value of maximum pharmacodynamic effects),DPP-4; [4],91.78
same,tvGam (typical value of Hill coefficient),DPP-4; [4],1.008
same,GLP-1 Baseline (value before dosing),plasma active GLP-1; 50 mg group,0.491 ± 0.815 pM
same,accumulation ratios of Rmax and AUEC0-24 h for plasma active GLP-1,plasma active GLP-1; 50 mg once daily,about 1.5
same,increase of plasma active GLP-1 AUEC0-24h compared with placebo group,plasma active GLP-1; 50 mg once daily,2.20 fold
same,"R0h,ss (baseline plasma active GLP-1 on day 14)","plasma active GLP-1; 50 mg oral once daily, day 14",1.787 ± 1.046 pM
same,△GLP-1-6h (change at 2 h after lunch),"plasma active GLP-1; 50 mg oral once daily, day 14",4.145 ± 0.920 pM
same,△GLP-1-12h (change at 2 h after dinner),"plasma active GLP-1; 50 mg oral once daily, day 14",3.880 ± 1.641 pM
same,△GLP-1 AUEC0-24h,"plasma active GLP-1; 50 mg oral once daily, day 14",57.8 ± 22.7 pM·h
same,"△GLP-1 Ravg,ss","plasma active GLP-1; 50 mg oral once daily, day 14",2.408 ± 0.944 pM
same,"△GLP-1 Rmax,ss","plasma active GLP-1; 50 mg oral once daily, day 14",5.891 ± 1.692 pM
same,"R0h,ss (baseline plasma active GLP-1 on day 14)","plasma active GLP-1; 50 mg oral once daily, day 14, listed as cetagliptin",1.787 pM
same,"△GLP-1 TRmax,ss","plasma active GLP-1; 50 mg oral once daily, day 14",5.00 (5.00-12.00) h
same,△GLP-1-6h (change at 2 h after lunch),"plasma active GLP-1; 50 mg oral, day 1",2.457 ± 1.135 pM
same,△GLP-1-12h (change at 2 h after dinner),"plasma active GLP-1; 50 mg oral, day 1",2.887 ± 0.981 pM
same,△GLP-1 AUEC0-24h,"plasma active GLP-1; 50 mg oral, day 1",42.6 ± 10.0 pM·h
same,△GLP-1 Rmax,"plasma active GLP-1; 50 mg oral, day 1",3.866 ± 1.031 pM
same,△GLP-1 TRmax,"plasma active GLP-1; 50 mg oral, day 1",5.00 (5.00-12.00) h
same,GLP-1 Baseline (value before dosing),plasma active GLP-1; 100 mg group,0.434 ± 0.393 pM
same,accumulation ratios of Rmax and AUEC0-24 h for plasma active GLP-1,plasma active GLP-1; 100 mg once daily,about 1.5
same,increase of plasma active GLP-1 AUEC0-24h compared with placebo group,plasma active GLP-1; 100 mg once daily,3.36 fold
same,"R0h,ss (baseline plasma active GLP-1 on day 14)","plasma active GLP-1; 100 mg oral once daily, day 14",1.858 ± 1.186 pM
same,△GLP-1-6h (change at 2 h after lunch),"plasma active GLP-1; 100 mg oral once daily, day 14",7.006 ± 3.171 pM
same,△GLP-1-12h (change at 2 h after dinner),"plasma active GLP-1; 100 mg oral once daily, day 14",5.648 ± 1.810 pM
same,△GLP-1 AUEC0-24h,"plasma active GLP-1; 100 mg oral once daily, day 14",88.2 ± 29.6 pM·h
same,"△GLP-1 Ravg,ss","plasma active GLP-1; 100 mg oral once daily, day 14",3.673 ± 1.234 pM
same,"△GLP-1 Rmax,ss","plasma active GLP-1; 100 mg oral once daily, day 14",7.868 ± 2.565 pM
same,"R0h,ss (baseline plasma active GLP-1 on day 14)","plasma active GLP-1; 100 mg oral once daily, day 14, listed as cetagliptin",1.858 pM
same,"△GLP-1 TRmax,ss","plasma active GLP-1; 100 mg oral once daily, day 14",6.00 (5.00-12.00) h
same,△GLP-1-6h (change at 2 h after lunch),"plasma active GLP-1; 100 mg oral, day 1",4.269 ± 2.232 pM
same,△GLP-1-12h (change at 2 h after dinner),"plasma active GLP-1; 100 mg oral, day 1",3.600 ± 2.410 pM
same,△GLP-1 AUEC0-24h,"plasma active GLP-1; 100 mg oral, day 1",63.1 ± 34.3 pM·h
same,△GLP-1 Rmax,"plasma active GLP-1; 100 mg oral, day 1",6.026 ± 3.823 pM
same,△GLP-1 TRmax,"plasma active GLP-1; 100 mg oral, day 1",5.00 (5.00-12.00) h
same,dose-limiting toxicity,[2],no dose-limiting toxicity observed
same,C-peptide AUEC0-t (OGTT),[3]; [5],4072.02 ± 1174.82
same,glucagon AUEC0-t (OGTT),[3]; [5],469.51 ± 189.76
same,glucose AUEC0-t (OGTT),[3]; [5],48.65 ± 5.34 mmol·h/L
same,insulin AUEC0-t (OGTT),[3]; [5],431.53 ± 271.81
same,change of AUEC0-3 h relative to baseline for C-peptide (OGTT),[3]; 50 mg once daily,1851.30
same,change of AUEC0-3 h relative to baseline for glucagon (OGTT),[3]; 50 mg once daily,-72.70
same,change of AUEC0-3 h relative to baseline for insulin (OGTT),[3]; 50 mg once daily,219.90
same,change of AUEC0-3 h relative to baseline for plasma glucose (OGTT),[3]; 50 mg once daily,-4.97 mmol·h/L
same,C-peptide AUEC0-t (OGTT),[3]; [6],6059.64 ± 1263.61
same,glucagon AUEC0-t (OGTT),[3]; [6],503.79 ± 161.61
same,glucose AUEC0-t (OGTT),[3]; [6],40.59 ± 2.87 mmol·h/L
same,insulin AUEC0-t (OGTT),[3]; [6],716.44 ± 250.84
same,change of AUEC0-3 h relative to baseline for C-peptide (OGTT),[3]; 100 mg once daily,1761.48
same,change of AUEC0-3 h relative to baseline for glucagon (OGTT),[3]; 100 mg once daily,-7.21
same,change of AUEC0-3 h relative to baseline for insulin (OGTT),[3]; 100 mg once daily,292.18
same,change of AUEC0-3 h relative to baseline for plasma glucose (OGTT),[3]; 100 mg once daily,-2.76 mmol·h/L
same,C-peptide AUEC0-t (OGTT),[3]; [7],5923.31 ± 2012.97
same,glucagon AUEC0-t (OGTT),[3]; [7],396.81 ± 51.89
same,glucose AUEC0-t (OGTT),[3]; [7],43.68 ± 8.04 mmol·h/L
same,insulin AUEC0-t (OGTT),[3]; [7],651.43 ± 455.05
same,C-peptide AUEC0-t (OGTT),[3]; [8],7821.13 ± 2023.09
same,glucagon AUEC0-t (OGTT),[3]; [8],496.58 ± 158.93
same,glucose AUEC0-t (OGTT),[3]; [8],37.83 ± 5.09 mmol·h/L
same,insulin AUEC0-t (OGTT),[3]; [8],1008.62 ± 367.20

# Source: PMC10961402, “Safety, tolerability, pharmacokinetics and pharmacokinetic-pharmacodynamic modeling of cetagliptin in patients with type 2 diabetes mellitus” (Frontiers in Endocrinology, 2024)
